Measured values reported in PubChem BioAssay AID1963438 (Molecular Pharmacology Branch, DTP, NCI, 2024).

System: NCI-H510 multicellular tumor spheroid growth, % test/control
Assay: Anticancer human tumor NCI-H510 cell line growth inhibition [Asc];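 also: spheroids exposed to agents for 7 days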;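 as to viability, T/C: 100% = DMSO vehicle control wells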
Conditions: for IC50: curve of first compound; for viability, T/C: stronger effect = lower value; active = viability on the fitted dose curve at most 10% of control; inactive = the rest
In short: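 Complex solid-tumor spheroids incorporating human endothelial and mesenchymal stem cells received single agents or combinations over half-log dilution ranges anchored to clinical Cmax.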

[1] = second compound 0.03 µM, first compound 0.000316 µM
[2] = second compound 0.03 µM, first compound 0.001 µM
[3] = second compound 0.03 µM, first compound 0.00316 µM
[4] = second compound 0.03 µM, first compound 0.01 µM
[5] = second compound 0.03 µM, first compound 0.0316 µM
[6] = second compound 0.03 µM, first compound 0.1 µM
[7] = second compound 0.0949 µM, first compound 0.000316 µM
[8] = second compound 0.0949 µM, first compound 0.001 µM
[9] = second compound 0.0949 µM, first compound 0.00316 µM
[10] = second compound 0.0949 µM, first compound 0.01 µM
[11] = second compound 0.0949 µM, first compound 0.0316 µM
[12] = second compound 0.0949 µM, first compound 0.1 µM
[13] = second compound 0.3 µM, first compound 0.000316 µM
[14] = second compound 0.3 µM, first compound 0.001 µM
[15] = second compound 0.3 µM, first compound 0.00316 µM
[16] = second compound 0.3 µM, first compound 0.01 µM
[17] = second compound 0.3 µM, first compound 0.0316 µM
[18] = second compound 0.3 µM, first compound 0.1 µM
[19] = second compound 0.949 µM, first compound 0.000316 µM
[20] = second compound 0.949 µM, first compound 0.001 µM
[21] = second compound 0.949 µM, first compound 0.00316 µM
[22] = second compound 0.949 µM, first compound 0.01 µM
[23] = second compound 0.949 µM, first compound 0.0316 µM
[24] = second compound 0.949 µM, first compound 0.1 µM
[25] = second compound 3 µM, first compound 0.000316 µM
[26] = second compound 3 µM, first compound 0.001 µM
[27] = second compound 3 µM, first compound 0.00316 µM
[28] = second compound 3 µM, first compound 0.01 µM
[29] = second compound 3 µM, first compound 0.0316 µM
[30] = second compound 3 µM, first compound 0.1 µM

Cn1ncnc1[C@H]1c2n[nH]c(=O)c3cc(F)cc(c23)N[C@@H]1c1ccc(F)cc1 + CCN1C(C(=O)NC23CCC(C(=O)O)(CC2)CC3)C(c2cccc(Cl)c2F)C2(C(=O)Nc3cc(Cl)ccc32)C12CCCCC2
active: viability, T/C [18] 5.7% | viability, T/C [24] 7.16% | viability, T/C [29] 6.31% | viability, T/C [30] 10.2%
inactive: viability, T/C [1] 114% | viability, T/C [2] 93.8% | viability, T/C [3] 77.3% | viability, T/C [4] 49.5% | viability, T/C [5] 6.92% | viability, T/C [6] 18.1% | viability, T/C [7] 105% | viability, T/C [8] 97.6% | viability, T/C [9] 95.4% | viability, T/C [10] 45.4% | viability, T/C [11] 14.7% | viability, T/C [12] 10.9% | viability, T/C [13] 104% | viability, T/C [14] 128% | viability, T/C [15] 96.6% | viability, T/C [16] 75.8% | viability, T/C [17] 9.76% | viability, T/C [19] 92.5% | viability, T/C [20] 118% | viability, T/C [21] 100% | viability, T/C [22] 50.9% | viability, T/C [23] 13.4% | viability, T/C [25] 109% | viability, T/C [26] 88.8% | viability, T/C [27] 102% | viability, T/C [28] 64%
15.6 nM: IC50 (second compound 0.3 µM)
10.4 nM: IC50 (second compound 0.949 µM)
7.83 nM: IC50 (second compound 0.03 µM)
13.4 nM: IC50 (second compound 3 µM)
9.02 nM: IC50 (second compound 0.0949 µM)

Cn1ncnc1[C@H]1c2n[nH]c(=O)c3cc(F)cc(c23)N[C@@H]1c1ccc(F)cc1 + CNC(C)C(=O)NC1CN(S(=O)(=O)c2cccc(S(=O)(=O)N3CCC4CCC(C(=O)NC(c5ccccc5)c5ccccc5)N4C(=O)C(NC(=O)C(C)NC)C3)c2)CCC2CCC(C(=O)NC(c3ccccc3)c3ccccc3)N2C1=O
> 100 nM: IC50 (second compound 0.01 µM) | IC50 (second compound 0.0316 µM) | IC50 (second compound 0.1 µM) | IC50 (second compound 0.316 µM) | IC50 (second compound 1 µM)
inactive: viability, T/C (second compound 0.01 µM, first compound 0.000316 µM) 102% | viability, T/C (second compound 0.01 µM, first compound 0.001 µM) 101% | viability, T/C (second compound 0.01 µM, first compound 0.00316 µM) 105% | viability, T/C (second compound 0.01 µM, first compound 0.01 µM) 104% | viability, T/C (second compound 0.01 µM, first compound 0.0316 µM) 72.2% | viability, T/C (second compound 0.01 µM, first compound 0.1 µM) 85.8% | viability, T/C (second compound 0.0316 µM, first compound 0.000316 µM) 96% | viability, T/C (second compound 0.0316 µM, first compound 0.001 µM) 102% | viability, T/C (second compound 0.0316 µM, first compound 0.00316 µM) 97% | viability, T/C (second compound 0.0316 µM, first compound 0.01 µM) 97.2% | viability, T/C (second compound 0.0316 µM, first compound 0.0316 µM) 78% | viability, T/C (second compound 0.0316 µM, first compound 0.1 µM) 98.4% | viability, T/C (second compound 0.1 µM, first compound 0.000316 µM) 110% | viability, T/C (second compound 0.1 µM, first compound 0.001 µM) 97% | viability, T/C (second compound 0.1 µM, first compound 0.00316 µM) 104% | viability, T/C (second compound 0.1 µM, first compound 0.01 µM) 98.2% | viability, T/C (second compound 0.1 µM, first compound 0.0316 µM) 72.1% | viability, T/C (second compound 0.1 µM, first compound 0.1 µM) 91.4% | viability, T/C (second compound 0.316 µM, first compound 0.000316 µM) 113% | viability, T/C (second compound 0.316 µM, first compound 0.001 µM) 108% | viability, T/C (second compound 0.316 µM, first compound 0.00316 µM) 96.6% | viability, T/C (second compound 0.316 µM, first compound 0.01 µM) 96% | viability, T/C (second compound 0.316 µM, first compound 0.0316 µM) 56.8% | viability, T/C (second compound 0.316 µM, first compound 0.1 µM) 93.6% | viability, T/C (second compound 1 µM, first compound 0.000316 µM) 110% | viability, T/C (second compound 1 µM, first compound 0.001 µM) 106% | viability, T/C (second compound 1 µM, first compound 0.00316 µM) 106% | viability, T/C (second compound 1 µM, first compound 0.01 µM) 97.5% | viability, T/C (second compound 1 µM, first compound 0.0316 µM) 92.3% | viability, T/C (second compound 1 µM, first compound 0.1 µM) 91.1%

NC1CCC(NC2CC2c2ccccc2)CC1 (stereo not given) + CCN1C(C(=O)NC23CCC(C(=O)O)(CC2)CC3)C(c2cccc(Cl)c2F)C2(C(=O)Nc3cc(Cl)ccc32)C12CCCCC2
84.8 nM: IC50 (second compound 3 µM)
inactive: viability, T/C [1] 85.9% | viability, T/C [2] 84.4% | viability, T/C [3] 82.5% | viability, T/C [4] 81.9% | viability, T/C [5] 92.4% | viability, T/C [6] 91.9% | viability, T/C [7] 101% | viability, T/C [8] 71.6% | viability, T/C [9] 77.5% | viability, T/C [10] 78.7% | viability, T/C [11] 60.6% | viability, T/C [12] 71.3% | viability, T/C [13] 92.4% | viability, T/C [14] 85.8% | viability, T/C [15] 98.3% | viability, T/C [16] 95.8% | viability, T/C [17] 73.3% | viability, T/C [18] 55.8% | viability, T/C [19] 83.8% | viability, T/C [20] 92.9% | viability, T/C [21] 90.6% | viability, T/C [22] 80.8% | viability, T/C [23] 72.3% | viability, T/C [24] 60.5% | viability, T/C [25] 106% | viability, T/C [26] 82.3% | viability, T/C [27] 79.8% | viability, T/C [28] 75.2% | viability, T/C [29] 60% | viability, T/C [30] 46.6%
> 100 nM: IC50 (second compound 0.03 µM) | IC50 (second compound 0.0949 µM) | IC50 (second compound 0.3 µM) | IC50 (second compound 0.949 µM)

CCN1C(C(=O)NC23CCC(C(=O)O)(CC2)CC3)C(c2cccc(Cl)c2F)C2(C(=O)Nc3cc(Cl)ccc32)C12CCCCC2 (stereo not given) + CNC(C)C(=O)NC1CN(S(=O)(=O)c2cccc(S(=O)(=O)N3CCC4CCC(C(=O)NC(c5ccccc5)c5ccccc5)N4C(=O)C(NC(=O)C(C)NC)C3)c2)CCC2CCC(C(=O)NC(c3ccccc3)c3ccccc3)N2C1=O
> 3000 nM: IC50 (second compound 0.01 µM) | IC50 (second compound 0.0316 µM) | IC50 (second compound 0.1 µM) | IC50 (second compound 0.316 µM) | IC50 (second compound 1 µM)
inactive: viability, T/C (second compound 0.01 µM, first compound 0.00949 µM) 130% | viability, T/C (second compound 0.01 µM, first compound 0.03 µM) 104% | viability, T/C (second compound 0.01 µM, first compound 0.0949 µM) 101% | viability, T/C (second compound 0.01 µM, first compound 0.3 µM) 96.7% | viability, T/C (second compound 0.01 µM, first compound 0.949 µM) 108% | viability, T/C (second compound 0.01 µM, first compound 3 µM) 104% | viability, T/C (second compound 0.0316 µM, first compound 0.00949 µM) 108% | viability, T/C (second compound 0.0316 µM, first compound 0.03 µM) 98.3% | viability, T/C (second compound 0.0316 µM, first compound 0.0949 µM) 97.8% | viability, T/C (second compound 0.0316 µM, first compound 0.3 µM) 117% | viability, T/C (second compound 0.0316 µM, first compound 0.949 µM) 131% | viability, T/C (second compound 0.0316 µM, first compound 3 µM) 90.9% | viability, T/C (second compound 0.1 µM, first compound 0.00949 µM) 108% | viability, T/C (second compound 0.1 µM, first compound 0.03 µM) 113% | viability, T/C (second compound 0.1 µM, first compound 0.0949 µM) 106% | viability, T/C (second compound 0.1 µM, first compound 0.3 µM) 101% | viability, T/C (second compound 0.1 µM, first compound 0.949 µM) 93.5% | viability, T/C (second compound 0.1 µM, first compound 3 µM) 121% | viability, T/C (second compound 0.316 µM, first compound 0.00949 µM) 95.3% | viability, T/C (second compound 0.316 µM, first compound 0.03 µM) 117% | viability, T/C (second compound 0.316 µM, first compound 0.0949 µM) 95.5% | viability, T/C (second compound 0.316 µM, first compound 0.3 µM) 109% | viability, T/C (second compound 0.316 µM, first compound 0.949 µM) 92.9% | viability, T/C (second compound 0.316 µM, first compound 3 µM) 107% | viability, T/C (second compound 1 µM, first compound 0.00949 µM) 96.6% | viability, T/C (second compound 1 µM, first compound 0.03 µM) 97.1% | viability, T/C (second compound 1 µM, first compound 0.0949 µM) 94.8% | viability, T/C (second compound 1 µM, first compound 0.3 µM) 99.2% | viability, T/C (second compound 1 µM, first compound 0.949 µM) 97.8% | viability, T/C (second compound 1 µM, first compound 3 µM) 115%
